Test results as given in patent US6620828B2, “Thiazole compounds and pharmaceutical compositions for inhibiting protein kinases and methods for their use” (Agouron Pharmaceuticals, Inc., priority 1999, dated 2003).
Where two headings read alike, the source gives them in different places.

Tested on: human umbilical vein endothelial cells (HUVEC)
Assay: HUVEC proliferation assay
Type: cell-based
Settings: for % inhibition @ 150 nM: Table I screening results, crude combinatorial amide library; for inhibition at 0.001 µM: 1 nM; for inhibition at 0.01 µM: 10 nM; for inhibition at 0.05 µM: 50 nM
Outline: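 Exponentially growing HUVEC were serum-starved 24 h (F12K + 1% FBS), pre-treated 1 h with compound (0.1% DMSO final), then stimulated with 6 ng/ml VEGF. Proliferation was read 72 h later by MTT reduction (A595). IC50 came from seven 0.5-log concentrations in triplicate; screens gave % inhibition relative to VEGF-only and starved wells.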

[1] = Homo sapiens, HUVEC, table following Table II (untitled), crude combinatorial library
[2] = Homo sapiens, HUVEC, table following Table II (untitled), crude combinatorial library, read-out: % inhibition @ 10 nM
[3] = Homo sapiens, HUVEC, Inhibition of HUVEC Proliferation, crude combinatorial urea library, read-out: % inhibition @ 50 nM
[4] = Homo sapiens, HUVEC, Inhibition of HUVEC Proliferation, crude combinatorial urea library, read-out: Inhibition @ 50 nM

COc1cc(Nc2nc(N)c(-c3nc(-c4cccc(NC(=O)C5CCN(C(C)=O)CC5)c4)cs3)s2)cc(OC)c1OC
% inhibition @ 150 nM: 0%

COc1cc(Nc2nc(N)c(-c3nc(-c4cccc(NC(=O)/C=C/c5cccc6ccccc56)c4)cs3)s2)cc(OC)c1OC
% inhibition @ 150 nM: 0%

COc1cc(Nc2nc(N)c(-c3nc(-c4cccc(NC(=O)C(C5CCCCC5)C5CCCCC5)c4)cs3)s2)cc(OC)c1OC
% inhibition @ 150 nM: 0%

COc1cc(Nc2nc(N)c(-c3nc(-c4cccc(NC(=O)CCc5cccnc5)c4)cs3)s2)cc(OC)c1OC
% inhibition @ 150 nM: 0%

COc1cc(/C=C/C(=O)Nc2cccc(-c3csc(-c4sc(Nc5cc(OC)c(OC)c(OC)c5)nc4N)n3)c2)cc(OC)c1OC
% inhibition @ 150 nM: 0%

COc1ccc(/C=C/C(=O)Nc2cccc(-c3csc(-c4sc(Nc5cc(OC)c(OC)c(OC)c5)nc4N)n3)c2)cc1OC
% inhibition @ 150 nM: 0%

C=CCC(C)C(=O)Nc1cccc(-c2csc(-c3sc(Nc4cc(OC)c(OC)c(OC)c4)nc3N)n2)c1 (stereo not shown)
% inhibition @ 150 nM: 0%

[CH2-][N+](=O)c1cccc(/C=C/C(=O)Nc2cccc(-c3csc(-c4sc(Nc5cc(OC)c(OC)c(OC)c5)nc4N)n3)c2)c1
% inhibition @ 150 nM: 0%

COc1cc(Nc2nc(N)c(-c3nc(-c4cccc(NC(=O)/C=C/c5cccc(Cl)c5)c4)cs3)s2)cc(OC)c1OC
% inhibition @ 150 nM: 0%

COc1cc(Nc2nc(N)c(-c3nc(-c4cccc(NC(=O)/C=C/c5ccco5)c4)cs3)s2)cc(OC)c1OC
% inhibition @ 150 nM: 0%

COc1cc(Nc2nc(N)c(-c3nc(-c4cccc(NC(=O)/C=C/c5ccoc5)c4)cs3)s2)cc(OC)c1OC
% inhibition @ 150 nM: 0%

COc1cc(Nc2nc(N)c(-c3nc(-c4cccc(NC(=O)/C=C/c5ccccc5F)c4)cs3)s2)cc(OC)c1OC
% inhibition @ 150 nM: 0%

COc1cc(Nc2nc(N)c(-c3nc(-c4cccc(NC(=O)/C=C/c5ccc(F)cc5)c4)cs3)s2)cc(OC)c1OC
% inhibition @ 150 nM: 0%

COc1cc(Nc2nc(N)c(-c3nc(-c4cccc(NC(=O)C(=O)c5c[nH]c6ccccc56)c4)cs3)s2)cc(OC)c1OC
% inhibition @ 150 nM: 0%

COc1ccc(C(=O)Nc2cccc(-c3csc(-c4sc(Nc5cc(OC)c(OC)c(OC)c5)nc4N)n3)c2)cc1Cl
% inhibition @ 150 nM: 0%

COc1cc(Nc2nc(N)c(-c3nc(-c4cccc(NC(=O)Cc5ccccc5C)c4)cs3)s2)cc(OC)c1OC
% inhibition @ 150 nM: 0%

COc1cc(Nc2nc(N)c(-c3nc(-c4cccc(NC(=O)/C=C/c5cccc(F)c5)c4)cs3)s2)cc(OC)c1OC
% inhibition @ 150 nM: 0%

COc1ccccc1CCC(=O)Nc1cccc(-c2csc(-c3sc(Nc4cc(OC)c(OC)c(OC)c4)nc3N)n2)c1
% inhibition @ 150 nM: 0%

COc1cc(CCC(=O)Nc2cccc(-c3csc(-c4sc(Nc5cc(OC)c(OC)c(OC)c5)nc4N)n3)c2)cc(OC)c1OC
% inhibition @ 150 nM: 0%

COc1cc(Nc2nc(N)c(-c3nc(-c4cccc(NC(=O)CCc5ccccc5Cl)c4)cs3)s2)cc(OC)c1OC
% inhibition @ 150 nM: 0%

COc1cc(Nc2nc(N)c(-c3nc(-c4cccc(NC(=O)/C=C/c5ccc6c(c5)OCO6)c4)cs3)s2)cc(OC)c1OC
% inhibition @ 150 nM: 0%

COc1cc(Nc2nc(N)c(-c3nc(-c4cccc(NC(=O)C(C)c5ccc(CC(C)C)cc5)c4)cs3)s2)cc(OC)c1OC (stereo not shown)
% inhibition @ 150 nM: 0%

COc1ccc(CC(=O)Nc2cccc(-c3csc(-c4sc(Nc5cc(OC)c(OC)c(OC)c5)nc4N)n3)c2)cc1
% inhibition @ 150 nM: 0%

COc1cc(Nc2nc(N)c(-c3nc(-c4cccc(NC(=O)Cn5cnc6c5c(=O)n(C)c(=O)n6C)c4)cs3)s2)cc(OC)c1OC
% inhibition @ 150 nM: 0%

COc1cc(Nc2nc(N)c(-c3nc(-c4cc(NC(=O)Cc5c(F)cccc5F)ccc4C)no3)s2)cc(OC)c1OC
inhibition at 0.001 µM [1]: -23%
inhibition at 0.01 µM [2]: 42%

COc1cc(Nc2nc(N)c(-c3nc(-c4cc(NC(=O)C5C(C)(C)C5(C)C)ccc4C)no3)s2)cc(OC)c1OC
inhibition at 0.001 µM [1]: -31%
inhibition at 0.01 µM [2]: 32%

CCNc1ccccc1C(=O)Nc1ccc(C)c(-c2noc(-c3sc(Nc4cc(OC)c(OC)c(OC)c4)nc3N)n2)c1
inhibition at 0.001 µM [1]: -21%
inhibition at 0.01 µM [2]: 18%

COc1cc(Nc2nc(N)c(-c3nc(-c4cc(NC(=O)[C@H]5CCCN5C(C)=O)ccc4C)no3)s2)cc(OC)c1OC
inhibition at 0.001 µM [1]: -44%
inhibition at 0.01 µM [2]: -3%

COc1cccc(C(=O)Nc2cc(-c3csc(-c4sc(NC(=O)NCc5ccccc5)nc4N)n3)c(F)cc2F)c1 [O(13), N-{5-[4′-Amino-2′-(3-benzyl-ureido)-[2,5′]bithiazolyl-4-yl]-2,4-difluoro-phenyl}-3-methoxy-benzamide]
IC50 (Homo sapiens, HUVEC, Table 3): 140 nM

CNC(=O)Nc1nc(N)c(-c2nc(-c3cccc(NC(=O)c4cccc(OC)c4)c3)cs2)s1 [drawing 606]
inhibition at 0.01 µM (Homo sapiens, HUVEC, crude combinatorial urea library, read-out: Inhibition of HUVEC Proliferation % inhibition @ 10 nM): 15%
inhibition at 0.05 µM (Homo sapiens, HUVEC, crude combinatorial urea library, read-out: Inhibition of HUVEC Proliferation % inhibition @ 50 nM): 115%

COc1cccc(C(=O)Nc2cc(-c3csc(-c4sc(NC(=O)NCCCN5CCCC5=O)nc4N)n3)c(F)cc2F)c1 [drawing 675]
inhibition at 0.05 µM [3]: 105%

COc1cccc(C(=O)Nc2cc(-c3csc(-c4sc(NC(=O)NCc5ccccc5)nc4N)n3)c(F)cc2F)c1 [drawing 678]
inhibition at 0.05 µM [3]: 93%

COc1cccc(C(=O)Nc2cc(-c3csc(-c4sc(NC(=O)NCCOCCO)nc4N)n3)c(F)cc2F)c1 [drawing 699]
inhibition at 0.05 µM [3]: 98%

COc1cccc(C(=O)Nc2cc(-c3csc(-c4sc(NC(=O)NCCN5CCOCC5)nc4N)n3)c(F)cc2F)c1 [drawing 700]
inhibition at 0.05 µM [3]: 96%

COc1cccc(C(=O)Nc2cc(-c3csc(-c4sc(NC(=O)NCCN5CCCC5)nc4N)n3)c(F)cc2F)c1 [drawing 703]
inhibition at 0.05 µM [3]: 93%

COCC(C)NC(=O)Nc1nc(N)c(-c2nc(-c3cc(NC(=O)c4cccc(OC)c4)c(F)cc3F)cs2)s1 (stereo not shown) [drawing 704]
inhibition at 0.05 µM [3]: 93%

COc1cccc(C(=O)Nc2cc(-c3csc(-c4sc(NC(=O)NCc5ccccn5)nc4N)n3)c(F)cc2F)c1 [drawing 705]
inhibition at 0.05 µM [3]: 118%

COc1cccc(C(=O)Nc2cc(-c3csc(-c4sc(NC(=O)NCCc5ccncc5)nc4N)n3)c(F)cc2F)c1 [drawing 753]
inhibition at 0.05 µM [3]: 98%

COc1cccc(C(=O)Nc2cc(-c3noc(-c4sc(NC(=O)NCC5CCCO5)nc4N)n3)c(F)cc2F)c1 (stereo not shown) [drawing 762]
inhibition at 0.05 µM [4]: 107%

COc1cccc(C(=O)Nc2cc(-c3noc(-c4sc(NC(=O)NCCCN5CCCC5=O)nc4N)n3)c(F)cc2F)c1 [drawing 763]
inhibition at 0.05 µM [4]: 106%

COc1cccc(C(=O)Nc2cc(-c3noc(-c4sc(NC(=O)N[C@H]5CC[C@H](O)CC5)nc4N)n3)c(F)cc2F)c1 [drawing 770]
inhibition at 0.05 µM [4]: 92%

CNC(=O)Nc1nc(N)c(-c2nc(-c3cc(NC(=O)c4cccc(OC)c4)c(F)cc3F)no2)s1 [drawing 782]
inhibition at 0.05 µM [4]: 105%

COc1cccc(C(=O)Nc2cc(-c3noc(-c4sc(NC(=O)NCCOCCO)nc4N)n3)c(F)cc2F)c1 [drawing 787]
inhibition at 0.05 µM [4]: 98%

COc1cccc(C(=O)Nc2cc(-c3noc(-c4sc(NC(=O)NCCN5CCOCC5)nc4N)n3)c(F)cc2F)c1 [drawing 788]
inhibition at 0.05 µM [4]: 106%

COc1cccc(C(=O)Nc2cc(-c3noc(-c4sc(NC(=O)NCC(N)=O)nc4N)n3)c(F)cc2F)c1 [drawing 803]
inhibition at 0.05 µM [4]: 30%

COc1cccc(C(=O)Nc2cc(-c3noc(-c4sc(NC(=O)NCC(C)C)nc4N)n3)c(F)cc2F)c1 [drawing 804]
inhibition at 0.05 µM [4]: 20%

COc1cccc(C(=O)Nc2cc(-c3noc(-c4sc(NC(=O)NCCO)nc4N)n3)c(F)cc2F)c1 [drawing 806]
inhibition at 0.05 µM [4]: 19%
